Laboratory results taken from US6514734B1, “Polybifunctional reagent having a polymeric backbone and latent reactive moieties and bioactive groups” (Surmodics, Inc., priority 1997, dated 2003).
Where no end group is shown, it is not given here.

Legend:
[1] = system: CPAE cells; test: Cell growth activity of immobilized peptides (MTT); type: cell-based, Calf; details: for growth on adsorbed peptides, times that observed on uncoated PS / growth on peptide polymers, times that observed on uncoated PS: wet immobilization protocol; for relative cell growth score, Immobil. Peptide Polymer: illuminated, dry immobilization protocol; for relative cell growth score, Immobil. Peptide Polymer / relative cell growth score, Adsorbed Peptide Reagent: relative to uncoated; for relative cell growth score, Adsorbed Peptide Reagent: nonilluminated
Description: The growth assays were conducted in 24-well PS culture plates. When PU and SR were evaluated, discs of each material (with or without coatings) were placed in the bottoms of the culture plate wells. When PS was evaluated, the bottoms of the wells were coated. For each assay, uncoated and peptide coated biomaterials (PS, PU, and SR) were seeded with CPAE cells at 1500 cells per well and allowed to proliferate in vitro for 4 to 7 days. Then, the media was aspirated and the cell growth was quantitated using MTT dye.
The following table summarizes results that compared cell growth on uncoated substrates, adsorbed peptides, and peptide polymers. As with the attachment assays, the relative numbers of cells growing on each peptide coated biomaterial was divided by the number of cells growing on the uncoated (UC) biomaterials to obtain a relative cell growth score. Each value represents the average of 1 to 4 different experiments, with each experiment being conducted with 3 or 4 replicates. The dry immobilization protocol described herein was used to immobilize all peptides evaluated. Immobil. Peptide Polymer refers to illuminated peptide polymer. Adsorbed Peptide Reagent refers to non illuminated peptide reagent. ND=not determined.
In addition to the peptides shown in the table above, C/H-II and HEP-III were also evaluated for growth on PS. With these two peptides, growth on adsorbed peptides was 1.0 and 1.1 times that observed on uncoated PS, and growth on peptide polymers was 10.5 and 13 times that observed on uncoated PS. These two peptides (polymers and reagent controls) were immobilized via the wet immobilization protocol. The results with C/H-II and HEP-III are the averages of 1and 2 experiments, respectively, with each experiment being conducted with 4 replicates.

[2] = system: Calf pulmonary artery endothelial (CPAE) cells; test: Cell attachment activity of immobilized peptides (MTT); type: cell-based; parameters: key: cells attached to coated ÷ cells attached to uncoated (MTT); details: relative to uncoated; for relative cell attachment score, Immobil. Peptide Polymer: illuminated; for relative cell attachment score, Adsorbed Peptide Reagent: nonilluminated
Description: Calf pulmonary artery endothelial (CPAE) cells were purchased from ATCC (American Type Culture Collection, Rockville, Md.) and cultured as indicated by ATCC. The attachment assays were conducted in 48-well PS culture plates. When PU and SR were evaluated, discs of each material (with or without coatings) were placed in the bottoms of the culture plate wells. When PS was evaluated, the bottoms of the wells were coated. For each assay, uncoated and peptide coated biomaterials (PS, PU, and SR) were seeded at 50,000 cells per well in serum free media containing 2 mg/ml of bovine serum albumin (BSA fraction V, from Sigma Chemical Company, St. Louis, Mo.). The cells were allowed to attach to each biomaterial for two hours. Then the unattached cells were removed by aspiration, and the wells were rinsed twice with Hank's Balanced Salt Solution (Celox Corp., Hopkins, Minn.). Finally, the attached cells were quantitated by the addition of culture media containing a metabolic dye, MTT [3-(4,5-dimethylthiazol-2-yl)-2,5-diphenyltetrazolium bromide] which is converted from a yellow tetrazolium salt into an insoluble, purple formazan in the presence of viable cells. After a two hour incubation in culture media containing MTT, the media was removed, and the formazan dye that had been deposited inside the viable cells was solubilized (with acidic isopropanol) and read on a spectrophotometer at 570 nm. The absorbance of the formazan is directly proportional to the number of attached, viable cells present per well.
The following table summarizes results of cell attachment assays comparing immobilized peptide polymers and adsorbed peptide reagent controls. In each case, the relative numbers of cells that attached to the peptide-coated biomaterials (as determined by MTT dye) were divided by the number of cells that attached to the uncoated (UC) biomaterials to obtain a relative cell attachment score. Each value represents the average of 1 to 4 different experiments, with each experiment being conducted with 3 or 4 replicates. The peptides were immobilized onto PS using the wet immobilization protocol described herein and the peptides were immobilized onto SR and PU via the dry immobilization protocol. Immobil. Peptide Polymer refers to illuminated peptide polymer. Adsorbed Peptide Reagent refers to nonilluminated peptide reagent. ND=not determined.

[3] = Polyurethane, dry immobilization protocol
[4] = Silicone Rubber, dry immobilization protocol

Cys Lys Gly Glu Phe Try Phe Asp Leu Arg Leu Lys Gly Asp Lys [HEP-III reagent control, reference compound]
growth on adsorbed peptides, times that observed on uncoated PS [1]: 1.1 times

C/H-V polymer: photoreactive polyacrylamide copolymer of C/H-V peptide monomer (SEQ ID NO: 9), BBA-APMA and acrylamide (CKKWQPPRARI; also: photoreactive polyacrylamide copolymer with BBA-APMA and acrylamide)
relative cell attachment score, Immobil. Peptide Polymer [2, 3]: 1.4 | relative cell attachment score, Immobil. Peptide Polymer [2, 4]: 1.3 | relative cell growth score, Immobil. Peptide Polymer ([1]; Polystyrene, 4 to 7 days): 11.3 | relative cell growth score, Immobil. Peptide Polymer ([1]; Polyurethane): 3.9 | relative cell growth score, Immobil. Peptide Polymer ([1]; Silicone Rubber): 1.0

Cys Lys Asn Asn Gln Lys Ser GIu Pro Leu Ile Gly Arg Lys Lys Thr [C/H-II reagent control, reference compound]
growth on adsorbed peptides, times that observed on uncoated PS [1]: 1.0 times

C/H-II polymer: photoreactive polyacrylamide copolymer of C/H-II peptide monomer (SEQ ID NO: 10), BBA-APMA and acrylamide (CKNNQKSEPLIGRKKT; also: photoreactive polyacrylamide copolymer with BBA-APMA and acrylamide)
growth on peptide polymers, times that observed on uncoated PS [1]: 10.5 times

CKKWQPPRARI [C/H-V reagent control, C/H-V peptide not incorporated into polymer, fibronectin-derived, reference compound]
relative cell attachment score, Adsorbed Peptide Reagent ([2]; Silicone Rubber): 0.4 | relative cell growth score, Adsorbed Peptide Reagent ([1]; Polystyrene): 1.0 | relative cell growth score, Adsorbed Peptide Reagent ([1]; Polyurethane): 0.7 | relative cell growth score, Adsorbed Peptide Reagent ([1]; Silicone Rubber): 2.0

HEP-III polymer: photoreactive polyacrylamide copolymer of HEP-III peptide monomer (SEQ ID NO: 12), BBA-APMA and acrylamide (CKGEFYFDLRLKGDK; also: photoreactive polyacrylamide copolymer with BBA-APMA and acrylamide)
growth on peptide polymers, times that observed on uncoated PS [1]: 13 times

F-9 polymer: photoreactive polyacrylamide copolymer of F-9 peptide monomer (SEQ ID NO:11), BBA-APMA and acrylamide (RYVVLPRPVCFEKK; also: photoreactive polyacrylamide copolymer with BBA-APMA and acrylamide)
relative cell attachment score, Immobil. Peptide Polymer ([2]; Polystyrene, wet immobilization protocol): 5.7 | relative cell attachment score, Immobil. Peptide Polymer [2, 3]: 1.9 | relative cell attachment score, Immobil. Peptide Polymer [2, 4]: 0.9 | relative cell growth score, Immobil. Peptide Polymer ([1]; Polystyrene, 4 to 7 days): 14.8 | relative cell growth score, Immobil. Peptide Polymer ([1]; Polyurethane): 7.7 | relative cell growth score, Immobil. Peptide Polymer ([1]; Silicone Rubber): 2.4

RYVVLPRPVCFEKK [F-9 reagent control, F-9 peptide not incorporated into polymer, laminin-derived, reference compound]
relative cell attachment score, Adsorbed Peptide Reagent ([2]; Polystyrene): 0.8 | relative cell growth score, Adsorbed Peptide Reagent ([1]; Polystyrene): 1.0 | relative cell growth score, Adsorbed Peptide Reagent ([1]; Polyurethane): 1.7 | relative cell growth score, Adsorbed Peptide Reagent ([1]; Silicone Rubber): 1.7

GRGDSPKKC [RGD reagent control, reference compound]
relative cell attachment score, Adsorbed Peptide Reagent ([2]; Polystyrene): 1.4 | relative cell attachment score, Adsorbed Peptide Reagent ([2]; Silicone Rubber): 1.1 | relative cell growth score, Adsorbed Peptide Reagent ([1]; Polystyrene): 1.2 | relative cell growth score, Adsorbed Peptide Reagent ([1]; Polyurethane): 1.7 | relative cell growth score, Adsorbed Peptide Reagent ([1]; Silicone Rubber): 1.1
